Earlier results in paper PMC9329312, “Decoding kinase-adverse event associations for small molecule kinase inhibitors” (Nature Communications, 2022).

Conditions: ref FAERS

CCOc1cc2ncc(C#N)c(Nc3ccc(OCc4ccccn4)c(Cl)c3)c2cc1NC(=O)/C=C/CN(C)C [neratinib]
Drug resistance, % of Cases: 0.15%
Drug titration, % of Cases: 2.1%
Dry eye, % of Cases: 0.3%
Dry mouth, % of Cases: 2.7%
Dry skin, % of Cases: 2.0%
Dry throat, % of Cases: 0.075%
Duodenal ulcer, % of Cases: 0.15%
Dysarthria, % of Cases: 0.075%
Dysgeusia, % of Cases: 0.45%
Dyspepsia, % of Cases: 4.4%
Dysphagia, % of Cases: 0.5%
Dysphemia, % of Cases: 0.075%
Dysphonia, % of Cases: 0.15%
Dyspnoea exertional, % of Cases: 0.075%
Dyspnoea, % of Cases: 1.7%
Dysstasia, % of Cases: 0.075%
Dysuria, % of Cases: 0.75%
Ear infection, % of Cases: 0.15%
Ear pain, % of Cases: 0.075%
Early satiety, % of Cases: 0.225%
Eating disorder, % of Cases: 0.15%
Ecchymosis, % of Cases: 0.075%
Eczema, % of Cases: 0.075%
Ejection fraction decreased, % of Cases: 0.15%
Electrocardiogram QT prolonged, % of Cases: 0.075%
Electrolyte imbalance, % of Cases: 0.225%
Emergency care, % of Cases: 0.7%
Energy increased, % of Cases: 0.075%
Enteritis, % of Cases: 0.075%
Eosinophil count increased, % of Cases: 0.075%
Epinephrine abnormal, % of Cases: 0.075%
Epistaxis, % of Cases: 1.2%
Eructation, % of Cases: 0.375%
Erythema, % of Cases: 0.5%
Escherichia sepsis, % of Cases: 0.075%
Escherichia urinary tract infection, % of Cases: 0.075%
Exfoliative rash, % of Cases: 0.075%
Eye discharge, % of Cases: 0.225%
Eye infection, % of Cases: 0.075%
Eye irritation, % of Cases: 0.075%
Eye pain, % of Cases: 0.075%
Eye pruritus, % of Cases: 0.15%
Eyelid margin crusting, % of Cases: 0.075%
Facial pain, % of Cases: 0.075%
Facial paralysis, % of Cases: 0.075%
Faecaloma, % of Cases: 0.075%
Faeces discoloured, % of Cases: 0.075%
Faeces hard, % of Cases: 0.075%
Faeces pale, % of Cases: 0.225%
Faeces soft, % of Cases: 0.45%
Failure to thrive, % of Cases: 0.075%
Fall, % of Cases: 0.75%
Fatigue, % of Cases: 25.2%
Febrile neutropenia, % of Cases: 0.075%
Feeding disorder, % of Cases: 0.375%
Feeling abnormal, % of Cases: 1.5%
Feeling jittery, % of Cases: 0.15%
Fibromyalgia, % of Cases: 0.075%
Flank pain, % of Cases: 0.075%
Flatulence, % of Cases: 1.7%
Fluid retention, % of Cases: 0.225%
Flushing, % of Cases: 0.075%
Food aversion, % of Cases: 0.075%
Food craving, % of Cases: 0.075%
Food poisoning, % of Cases: 0.075%
Fracture, % of Cases: 0.075%
Frustration tolerance decreased, % of Cases: 0.075%
Full blood count abnormal, % of Cases: 0.225%
Fungal infection, % of Cases: 0.075%
Furuncle, % of Cases: 0.075%
Gait disturbance, % of Cases: 0.5%
Gait inability, % of Cases: 0.075%
Gastric cancer stage IV, % of Cases: 0.075%
Gastric dilatation, % of Cases: 0.075%
Gastric disorder, % of Cases: 0.3%
Gastric neoplasm, % of Cases: 0.075%
Gastric ulcer haemorrhage, % of Cases: 0.075%
Gastritis, % of Cases: 0.3%
Gastroenteritis norovirus, % of Cases: 0.075%
Gastroenteritis viral, % of Cases: 0.375%
Gastroenteritis, % of Cases: 0.075%
Gastrointestinal disorder, % of Cases: 0.225%
Gastrointestinal haemorrhage, % of Cases: 0.075%
Gastrointestinal infection, % of Cases: 0.075%
Gastrointestinal perforation, % of Cases: 0.075%
Gastrointestinal sounds abnormal, % of Cases: 0.5%
Gastrooesophageal reflux disease, % of Cases: 2.7%
Gastrostomy, % of Cases: 0.075%
Gingival bleeding, % of Cases: 0.075%
Gingivitis, % of Cases: 0.075%
Glomerular filtration rate decreased, % of Cases: 0.225%
Glossodynia, % of Cases: 0.075%
Glycosylated haemoglobin increased, % of Cases: 0.075%
Gout, % of Cases: 0.075%
Groin pain, % of Cases: 0.075%
Haematemesis, % of Cases: 0.3%
Haematochezia, % of Cases: 0.6%
Haematocrit decreased, % of Cases: 0.075%
Haemoglobin abnormal, % of Cases: 0.075%
Haemoglobin decreased, % of Cases: 0.45%
Haemorrhage, % of Cases: 0.375%
Haemorrhoidal haemorrhage, % of Cases: 0.075%
Haemorrhoids, % of Cases: 0.15%
Hair growth abnormal, % of Cases: 0.15%
Hair growth rate abnormal, % of Cases: 0.075%
Hair texture abnormal, % of Cases: 0.075%
Hallucination, % of Cases: 0.075%
Head and neck cancer, % of Cases: 0.075%
Head discomfort, % of Cases: 0.075%
Headache, % of Cases: 5.4%
Heart rate decreased, % of Cases: 0.075%
Heart rate increased, % of Cases: 0.5%
Helicobacter infection, % of Cases: 0.075%
Hepatic cyst, % of Cases: 0.075%
Hepatic enzyme abnormal, % of Cases: 0.075%
Hepatic enzyme increased, % of Cases: 1.5%
Hepatic failure, % of Cases: 0.15%
Hepatic function abnormal, % of Cases: 0.075%
Hepatic steatosis, % of Cases: 0.075%
Hepatitis, % of Cases: 0.3%
Hepatomegaly, % of Cases: 0.075%
Hepatotoxicity, % of Cases: 0.075%
Hernia, % of Cases: 0.075%
Herpes zoster, % of Cases: 0.15%
Hiccups, % of Cases: 0.15%
Hip arthroplasty, % of Cases: 0.075%
Hordeolum, % of Cases: 0.15%
Hospice care, % of Cases: 0.7%
Hospitalisation, % of Cases: 5.3%
Hot flush, % of Cases: 0.6%
Human epidermal growth factor receptor negative, % of Cases: 0.075%
Hydrocephalus, % of Cases: 0.075%
Hyperbilirubinaemia, % of Cases: 0.075%
Hyperchlorhydria, % of Cases: 0.15%
Hyperglycaemia, % of Cases: 0.225%
Hyperhidrosis, % of Cases: 0.075%
Hypersensitivity, % of Cases: 0.5%
Hypersomnia, % of Cases: 0.075%
Hypertension, % of Cases: 0.15%
Hypoaesthesia oral, % of Cases: 0.15%
Hypoaesthesia, % of Cases: 1.0%
Hypogeusia, % of Cases: 0.075%
Hypokalaemia, % of Cases: 0.45%
Hypomagnesaemia, % of Cases: 0.075%
Hyponatraemia, % of Cases: 0.075%
Hypophagia, % of Cases: 0.15%
Hypophosphataemia, % of Cases: 0.075%
Hypotension, % of Cases: 0.6%
Hypovolaemia, % of Cases: 0.075%
Hypoxia, % of Cases: 0.15%
Hysterectomy, % of Cases: 0.15%
Illness, % of Cases: 1.7%
Impaired driving ability, % of Cases: 0.075%
Impaired healing, % of Cases: 0.15%
Impaired quality of life, % of Cases: 0.375%
Implantable defibrillator insertion, % of Cases: 0.075%
Inappropriate schedule of product administration, % of Cases: 0.45%
Incision site abscess, % of Cases: 0.075%
Incorrect dosage administered, % of Cases: 0.075%
Incorrect dose administered, % of Cases: 1.7%
Increased appetite, % of Cases: 0.075%
Infection, % of Cases: 0.6%
Influenza like illness, % of Cases: 0.3%
Influenza, % of Cases: 0.7%
Infrequent bowel movements, % of Cases: 0.075%
Insomnia, % of Cases: 1.2%
Intensive care, % of Cases: 0.075%
Intentional dose omission, % of Cases: 0.225%
Intentional product use issue, % of Cases: 0.15%
Intentional underdose, % of Cases: 0.15%
Intervertebral disc protrusion, % of Cases: 0.075%
Intestinal haemorrhage, % of Cases: 0.075%
Intestinal obstruction, % of Cases: 0.075%
